The record followed here is patent US10189854B2, “Substituted pyrimidine compounds” (Grünenthal GmbH, priority 2014, dated 2019).

One may read the IC50 as the concentration that inhibits the measured activity by half. A higher IC50 goes with a need for much substance.

Each structure is given as a SMILES string.

For the experiment, the target named is human PDE4B1 (Homo sapiens (Human), UniProt Q07343). Briefly: TR-FRET assay using the LANCE Ultra cAMP kit to determine the activity of hPDE4B1. In kind it is biochemical. The conditions noted are these: IC50 inhibition of PDE4B, mean. From the text: TR-FRET Assay Using the LANCE® Ultra cAMP Kit to Determine the Activity of hPDE4B1
The effects of the compounds on the activity of the human PDE4B1 was quantified by measuring the production of 5′AMP from cAMP using a human recombinant enzyme expressed in Sf9 cells and the LANCE® Ultra cAMP kit, a TR-FRET detection method from PerkinElmer. The human PDE4B1 enzyme was purchased from SignalChem Lifesciences (Catalog# P92-31BG, Lot# H296-2).
The test compound, reference compound or water (control) was mixed with the enzyme (0.96 U) in a reaction buffer containing 50 mM Tris-HCl, 50 mM MgCl2 and 5 mM DTT (pH 8.5). Thereafter, the reaction was initiated by addition of 500 nM cAMP (substrate) and the mixture was incubated for 30 minutes at room temperature. For control basal measurements, the enzyme was omitted from the reaction mixture. After 30 minutes, the reaction was stopped and diluted by a factor of 100 with the reaction buffer supplemented with 500 μM IBMX. The fluorescence donor (europium chelate-labeled cAMP) and the fluorescence acceptor (anti-cAMP antibody labeled with the ULight™ dye) were then added together with 500 μM IBMX to a 10 μl aliquot. After 60 minutes, the fluorescence transfer corresponding to the amount of residual cAMP was measured at λex=337 nm, λem=620 nm and λem=665 nm using a microplate reader (PHERAstar, BMG). The enzyme activity was determined by dividing the signal measured at 665 nm by that measured at 620 nm (ratio) multiplied by 10000. The results were expressed as percent inhibition of the control enzyme activity. IC50 values (IC50=concentration causing a half-maximal inhibition of control specific activity) were derived from dose response measurements with ten different concentrations (n=3; N=1-3).
Several compounds according to the invention are tested with above mentioned assay.
For orientation: In TR-FRET formats the signal depends on donor and acceptor labels being close together.

Sequence of human PDE4B1 (Q07343 whole entry): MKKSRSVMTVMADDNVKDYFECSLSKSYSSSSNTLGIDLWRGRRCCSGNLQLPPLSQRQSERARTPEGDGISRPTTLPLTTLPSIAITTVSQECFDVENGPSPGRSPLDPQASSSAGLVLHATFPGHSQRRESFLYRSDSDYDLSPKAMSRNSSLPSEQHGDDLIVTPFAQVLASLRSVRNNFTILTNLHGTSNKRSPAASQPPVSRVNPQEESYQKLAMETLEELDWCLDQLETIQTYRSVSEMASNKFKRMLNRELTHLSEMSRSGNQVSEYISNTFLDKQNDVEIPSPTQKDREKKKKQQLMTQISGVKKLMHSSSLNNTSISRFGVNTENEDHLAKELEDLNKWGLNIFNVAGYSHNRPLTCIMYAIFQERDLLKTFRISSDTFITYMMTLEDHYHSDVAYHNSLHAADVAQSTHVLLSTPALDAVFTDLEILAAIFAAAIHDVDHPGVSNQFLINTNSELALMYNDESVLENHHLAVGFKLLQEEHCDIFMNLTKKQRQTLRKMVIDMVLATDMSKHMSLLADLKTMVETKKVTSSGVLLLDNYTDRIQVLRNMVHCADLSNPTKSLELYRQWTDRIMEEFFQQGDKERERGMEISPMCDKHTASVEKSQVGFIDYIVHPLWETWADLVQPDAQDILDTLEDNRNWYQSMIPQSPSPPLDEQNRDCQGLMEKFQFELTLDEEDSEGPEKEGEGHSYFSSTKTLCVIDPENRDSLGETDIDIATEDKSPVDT

Consider `CN(CCO)C(=O)c1ccc2c(c1)N(c1ncc(-c3csc(CO)n3)cn1)CC21CC1` [Compound 326, N-(2-Hydroxy-ethyl)-1-[5-[2-(hydroxymethyl)-thiazol-4-yl]-pyrimidin-2-yl]-N-methyl-spiro[1,2-dihydro-indole-3,1′-cyclopropane]-6-carboxylic acid amide], for which the IC50 is less than 0.1 µM. Take `CN(C)C(=O)c1ccc2c(c1)N(c1ncc(-c3ccccn3)cn1)CC21CC1` [Compound 306, N,N-Dimethyl-1-(5-pyridin-2-yl-pyrimidin-2-yl)-spiro[1,2-dihydro-indole-3,1′-cyclopropane]-6-carboxylic acid amide]: the IC50 is less than 0.1 µM. With `CCc1ccnc(-c2cnc(N3CC4(CC4)c4ccc(C(=O)N(C)CCO)cc43)nc2)c1` [Compound 241, 1-[5-(4-Ethyl-pyridin-2-yl)-pyrimidin-2-yl]-N-(2-hydroxy-ethyl)-N-methyl-spiro[1,2-dihydro-indole-3,1′-cyclopropane]-6-carboxylic acid amide] the figure was less than 0.1 µM; with `CC(O)c1ccnc(-c2cnc(N3CC4(CC4)c4ccc(C(=O)N5CCOCC5)cc43)nc2)c1` (stereo not shown) [Compound 293, [1-[5-[4-(1-Hydroxy-ethyl)-pyridin-2-yl]-pyrimidin-2-yl]-spiro[1,2-dihydro-indole-3,1′-cyclopropane]-6-yl]-morpholin-4-yl-methanone], less than 0.1 µM.

As for `COc1cc(C2CC2)cc(-c2cnc(N3CC4(CC4)c4ccc(C(=O)N(C)CCO)cc43)nc2)n1` [Compound 361, 1′-(5-(4-cyclopropyl-6-methoxypyridin-2-yl)pyrimidin-2-yl)-N-(2-hydroxyethyl)-N-methylspiro[cyclopropane-1,3′-indoline]-6′-carboxamide], the IC50 fell in the range of 0.1 to 1 µM.

Molecule `CN(CCO)C(=O)c1ccc2c(c1)N(c1ncc(-c3csc(C(N)=O)n3)cn1)CC21CC1` [Compound 327, 4-[2-[6-[(2-Hydroxy-ethyl)-methyl-carbamoyl]-spiro[1,2-dihydro-indole-3,1′-cyclopropane]-1-yl]-pyrimidin-5-yl]-thiazole-2-carboxylic acid amide] yielded an IC50 of less than 0.1 µM. With `O=C(c1ccc2c(c1)N(c1ncc(-c3ccccc3F)cn1)CC21CC1)N1CC[C@@H](CO)C1` [Compound 311, [1-[5-(2-Fluorophenyl)-pyrimidin-2-yl]-spiro[1,2-dihydro-indole-3,1′-cyclopropane]-6-yl]-[(3R)-3-(hydroxymethyl)-pyrrolidin-1-yl]-methanone] the figure was less than 0.1 µM. Then `CNC(=O)CN(C)C(=O)c1ccc2c(c1)N(c1ncc(-c3cc(C)ccn3)cn1)CC21CC1` [Compound 360, N-Methyl-N-(methylcarbamoyl-methyl)-1-[5-(4-methyl-pyridin-2-yl)-pyrimidin-2-yl]-spiro[1,2-dihydro-indole-3,1′-cyclopropane]-6-carboxylic acid amide], with less than 0.1 µM; and `O=C(c1ccc2c(c1)N(c1ncc(-c3ccccc3F)cn1)CC21CC1)N1CCC[C@@H](CO)C1` [Compound 313, [1-[5-(2-Fluorophenyl)-pyrimidin-2-yl]-spiro[1,2-dihydro-indole-3,1′-cyclopropane]-6-yl]-[(3R)-3-(hydroxymethyl)-piperidin-1-l]-methanone], with less than 0.1 µM; and `CN(CCO)C(=O)c1ccc2c(c1)N(c1ncc(-c3ccccn3)cn1)CC21CC1` [Compound 229, N-(2-Hydroxy-ethyl)-N-methyl-1-(5-pyridin-2-yl-pyrimidin-2-yl)-spiro[1,2-dihydro-indole-3,1′-cyclopropane]-6-carboxylic acid amide], with less than 0.1 µM.

Regarding `O=C(c1ccc2c(c1)N(c1ncc(-c3ccccc3F)cn1)CC21CC1)N1CC[C@H](CO)C1` [Compound 310, [1-[5-(2-Fluorophenyl)-pyrimidin-2-yl]-spiro[1,2-dihydro-indole-3,1′-cyclopropane]-6-yl]-[(3S)-3-(hydroxymethyl)-pyrrolidin-1-yl]-methanone], the IC50 was less than 0.1 µM.

In turn, `CCc1nc(-c2cnc(N3CC4(CC4)c4ccc(C(=O)N(C)CCO)cc43)nc2)cs1` [Compound 325, 1-[5-(2-Ethyl-thiazol-4-yl)-pyrimidin-2-yl]-N-(2-hydroxy-ethyl)-N-methyl-spiro[1,2-dihydro-indole-3,1′-cyclopropane]-6-carboxylic acid amide] had a 50% inhibitory concentration (IC50) of less than 0.1 µM. With `CN(C)C(=O)c1ccc2c(c1)N(c1ncc(-c3cc(N(C)C)ccn3)cn1)CC21CC1` [Compound 271, 1-[5-(4-Dimethylamino-pyridin-2-yl)-pyrimidin-2-yl]-N,N-dimethyl-spiro[1,2-dihydro-indole-3,1′-cyclopropane]-6-carboxylic acid amide], the IC50 was less than 0.1 µM. Then `CCOc1ccnc(-c2cnc(N3CC4(CC4)c4ccc(C(=O)N(C)CCO)cc43)nc2)c1` [Compound 257, 1-[5-(4-Ethoxy-pyridin-2-yl)-pyrimidin-2-yl]-N-(2-hydroxy-ethyl)-N-methyl-spiro[1,2-dihydro-indole-3,1′-cyclopropane]-6-carboxylic acid amide], with less than 0.1 µM; and `O=C(c1ccc2c(c1)N(c1ncc(-c3cc(C4CC4)ccn3)cn1)CC21CC1)N1CCC[C@H](CO)C1` [Compound 332, [1-[5-(4-Cyclopropyl-pyridin-2-yl)-pyrimidin-2-yl]-spiro[1,2-dihydro-indole-3,1′-cyclopropane]-6-yl]-[(3S)-3-(hydroxymethyl)-piperidin-1-yl]-methanone], with less than 0.1 µM.

Molecule `CN(C)c1ccnc(-c2cnc(N3CC4(CC4)c4ccc(C(=O)N5CCCC5)cc43)nc2)c1` [Compound 276, [1-[5-(4-Dimethylamino-pyridin-2-yl)-pyrimidin-2-yl]-spiro[1,2-dihydro-indole-3,1′-cyclopropane]-6-yl]-pyrrolidin-1-yl-methanone] returned an IC50 of less than 0.1 µM. Then `CS(=O)(=O)c1ccnc(-c2cnc(N3CC4(CC4)c4ccc(C(=O)N5CCOCC5)cc43)nc2)c1` [Compound 345, [1-[5-(4-Methylsulfonyl-pyridin-2-yl)-pyrimidin-2-yl]-spiro[1,2-dihydro-indole-3,1′-cyclopropane]-6-yl]-morpholin-4-yl-methanone], with less than 0.1 µM. Consider `CN(CCO)C(=O)c1ccc2c(c1)N(c1ncc(-c3cc(F)ccc3F)cn1)CC21CC1` [Compound 364, 1-[5-(2,5-Difluoro-phenyl)-pyrimidin-2-yl]-N-(2-hydroxy-ethyl)-N-methyl-spiro[1,2-dihydro-indole-3,1′-cyclopropane]-6-carboxylic acid amide], for which the IC50 was less than 0.1 µM.

`CC[S+]([O-])c1cccc(-c2cnc(N3CC4(CC4)c4ccc(C(=O)N(C)CCO)cc43)nc2)c1` (stereo not shown) [Compound 341, 1-[5-[3-(Ethylsulfinyl)-phenyl]-pyrimidin-2-yl]-N-(2-hydroxy-ethyl)-N-methyl-spiro[1,2-dihydro-indole-3,1′-cyclopropane]-6-carboxylic acid amide] displayed an IC50 of less than 0.1 µM.

In turn, `CN(C)c1ccnc(-c2cnc(N3CC4(CC4)c4ccc(C(=O)N5C[C@@H]6C[C@H]5CN6)cc43)nc2)c1` [Compound 302, [(1S,4S)-2,5-Diazabicyclo[2.2.1]heptan-2-yl]-[1-[5-(4-dimethylamino-pyridin-2-yl)-pyrimidin-2-yl]-spiro[1,2-dihydro-indole-3,1′-cyclopropane]-6-yl]-methanone] yielded an IC50 of less than 0.1 µM. Then `CCNc1ccnc(-c2cnc(N3CC4(CC4)c4ccc(C(=O)N5CCOCC5)cc43)nc2)c1` [Compound 292, [1-[5-(4-Ethylamino-pyridin-2-yl)-pyrimidin-2-yl]-spiro[1,2-dihydro-indole-3,1′-cyclopropane]-6-yl]-morpholin-4-yl-methanone], with less than 0.1 µM.

Consider `CCc1cccc(-c2cnc(N3CC4(CC4)c4ccc(C(=O)N(C)CCO)cc43)nc2)c1` [Compound 266, 1-[5-(3-Ethyl-phenyl)-pyrimidin-2-yl]-N-(2-hydroxy-ethyl)-N-methyl-spiro[1,2-dihydro-indole-3,1′-cyclopropane]-6-carboxylic acid amide], for which the IC50 was less than 0.1 µM. Then `CC(O)c1ccnc(-c2cnc(N3CC4(CC4)c4ccc(C(=O)N(C)CCO)cc43)nc2)c1` (stereo not shown) [Compound 318, N-(2-Hydroxy-ethyl)-1-[5-[4-(1-hydroxy-ethyl)-pyridin-2-yl]-pyrimidin-2-yl]-N-methyl-spiro[1,2-dihydro-indole-3,1′-cyclopropane]-6-carboxylic acid amide], with less than 0.1 µM. In turn, `CN(CC(=O)O)C(=O)c1ccc2c(c1)N(c1ncc(-c3ccccc3F)cn1)CC21CC1` [Compound 245, 2-[[1-[5-(2-Fluorophenyl)-pyrimidin-2-yl]-spiro[1,2-dihydro-indole-3,1′-cyclopropane]-6-carbonyl]-methyl-amino]-acetic acid] returned a 50% inhibitory concentration (IC50) of less than 0.1 µM. `CCNc1ccc(F)c(-c2cnc(N3CC4(CC4)c4ccc(C(=O)N(C)CCO)cc43)nc2)c1` [Compound 343, 1-[5-(5-Ethylamino-2-fluoro-phenyl)-pyrimidin-2-yl]-N-(2-hydroxy-ethyl)-N-methyl-spiro[1,2-dihydro-indole-3,1′-cyclopropane]-6-carboxylic acid amide] gave an IC50 of less than 0.1 µM.
